Our source for the IC50 values is patent US20260184712A1, “Heterocyclic Compounds as ENT Inhibitors and Compounds for Use in the Treatment of Cancers” (iTeos Belgium SA, priority 2022, published 2026).

The target of the assay is T1, human ENT1 (Homo sapiens, UniProt Q99808).
T1 construct: JAR cells expressing ENT1 were purchased from ATCC; host or cells: JAR cells
T1 sequence (Q99808 1-456): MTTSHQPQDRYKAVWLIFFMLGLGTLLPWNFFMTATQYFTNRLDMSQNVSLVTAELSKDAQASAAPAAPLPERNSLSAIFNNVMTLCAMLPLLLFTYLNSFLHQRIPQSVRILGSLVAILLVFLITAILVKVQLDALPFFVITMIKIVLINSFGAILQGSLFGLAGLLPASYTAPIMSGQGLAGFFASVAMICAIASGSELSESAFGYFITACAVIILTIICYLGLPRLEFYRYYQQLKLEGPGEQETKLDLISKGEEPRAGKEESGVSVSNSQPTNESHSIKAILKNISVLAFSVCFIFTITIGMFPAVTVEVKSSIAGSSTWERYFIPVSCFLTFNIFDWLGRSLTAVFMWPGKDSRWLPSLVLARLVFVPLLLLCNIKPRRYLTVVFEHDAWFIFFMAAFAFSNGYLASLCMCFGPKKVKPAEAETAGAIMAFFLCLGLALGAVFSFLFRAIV
Put plainly: ENT1 binding assay (competition with Sahenta-DY647 on JAR cells). As to conditions: competition with SAHENTA-DY647 binding; IC50 categorized; read-out: Binding Assay IC50. The procedure, abridged:
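Fluorescent-tracer displacement: compound incubated with JAR cells 30 min, 4 °C, before Sahenta-DY647 (100 nM) for another 30 min, 4 °C, in Hepes-buffered HBSS with 0.1% BSA. Bound tracer read at 670 nm after washes; IC50 from four-parameter fit, reported as mean of pIC50 values.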

A word on the IC50: it is the concentration needed to halve the response being measured. Consider `CC(CCO)Nc1nc2c(OCc3ccc(OC(F)(F)F)cc3)ncnc2n1[C@@H]1O[C@H](C)[C@@H](O)[C@H]1O` (stereo partly shown) [Compound 99], for which the IC50 is 1 to 20 nM.
For `Cc1nc(=O)c2cc(COc3ncnc4c3ncn4[C@@H]3O[C@H](C)[C@@H](O)[C@H]3O)ccc2[nH]1` [Compound 367] the value was greater than 500 nM; for `C[C@H]1O[C@@H](n2cnc3c(SCc4ccc5ccccc5n4)ncnc32)[C@H](O)[C@@H]1O` [Compound 342], greater than 500 nM.
Consider `C[C@H]1O[C@@H](n2c(N)nc3c(OCCc4ccc([N+](=O)[O-])cc4)ncnc32)[C@H](O)[C@@H]1O` [Compound 215], for which the IC50 lay within 20 to 500 nM.
As to `C[C@H]1O[C@@H](n2cnc3c(N4CCC(c5ccc([N+](=O)[O-])cc5)C4)ncnc32)[C@H](O)[C@@H]1O` (stereo partly shown) [Compound 315], the IC50 was greater than 500 nM.
Then `C[C@H]1O[C@@H](n2cnc3c(C(=O)NCc4ccc(C#N)cc4)ncnc32)[C@H](O)[C@@H]1O` [Compound 361], with greater than 500 nM.
For the compound `CC(CCO)Nc1nc2c(OCc3ccc(C(F)(F)F)cc3)ncnc2n1[C@@H]1O[C@H](C)[C@@H](O)[C@H]1O` (stereo partly shown) [Compound 96], the IC50 lay within 1 to 20 nM.
In the case of `C[C@H]1O[C@@H](n2c(NC3CCOCC3)nc3c(N4CCc5ccc([N+](=O)[O-])cc5C4)ncnc32)[C@H](O)[C@@H]1O` [Compound 148], the IC50 lay within 1 to 20 nM.
In the case of `C[C@H]1O[C@@H](n2c(N[C@H]3CC[C@H](O)CC3)nc3c(OCc4ccc([N+](=O)[O-])cc4)ncnc32)[C@H](O)[C@@H]1O` [Compound 57], the IC50 was less than 1 nM.
As to `C[C@H]1O[C@@H](n2cnc3c(SCc4ccc(C(=O)O)cc4)ncnc32)[C@H](O)[C@@H]1O` [Compound 409], the IC50 was greater than 500 nM.
Then `C[C@H]1O[C@@H](n2cnc3c(OCc4ccc(-n5cncn5)cc4)ncnc32)[C@H](O)[C@@H]1O` [Compound 314], with greater than 500 nM; and `C[C@H]1O[C@@H](n2cnc3c(OCc4ccc(C5CC5)cc4)ncnc32)[C@H](O)[C@@H]1O` [Compound 206], with 20 to 500 nM.
As for `O=C(NCCO)[C@H]1O[C@@H](n2cnc3c(OCc4ccc([N+](=O)[O-])cc4)ncnc32)[C@H](O)[C@@H]1O` [Compound 271], the IC50 is greater than 500 nM.
With `CC1OC(n2c(NC3CC(C)(O)C3)nc3c(OCc4ccc([N+](=O)[O-])cc4)ncnc32)C(O)C1O` (single isomer, unassigned) [Compound 134], the IC50 was less than 1 nM.
Turning to `C[C@H]1O[C@@H](n2cnc3c(SCc4ncccn4)ncnc32)[C@H](O)[C@@H]1O` [Compound 394], the IC50 was greater than 500 nM.
With `C[C@H]1O[C@@H](n2cnc3c(OCc4cccc(C(N)=O)c4)ncnc32)[C@H](O)[C@@H]1O` [Compound 373], the IC50 is greater than 500 nM.
In the case of `C[C@H]1O[C@@H](n2cnc3c(OCCc4ccc(CF)cc4)ncnc32)[C@H](O)[C@@H]1O` [Compound 294], the IC50 is greater than 500 nM.
Regarding `C[C@H]1O[C@@H](n2c(NC3CCCC3)nc3c(OCc4ccc(C(F)F)nc4)ncnc32)[C@H](O)[C@@H]1O` [Compound 95], the 50% inhibitory concentration (IC50) lay in the range of 1 to 20 nM.
With `C[C@H]1O[C@@H](n2c(N[C@H]3CC[C@@](C)(O)CC3)nc3c(OCc4ccc(Cl)cc4)ncnc32)[C@H](O)[C@@H]1O` [Compound 128], the IC50 lay within 1 to 20 nM.
Turning to `C[C@H]1O[C@@H](n2cnc3c(NCc4ccc(C(=O)N(C)C)cc4)ncnc32)[C@H](O)[C@@H]1O` [Compound 370], the IC50 is greater than 500 nM.
As for `C[C@H]1O[C@@H](n2cnc3c(OCc4ccc([N+](=O)[O-])cc4)nc(Cl)nc32)[C@H](O)[C@@H]1O` [Compound 222], the IC50 is greater than 500 nM.
Regarding `C[C@H]1O[C@@H](n2c(NC3CC3)nc3c(OCc4ccc(C#N)cc4)ncnc32)[C@H](O)[C@@H]1O` [Compound 39], the IC50 was in the range of 1 to 20 nM.
Take `C[C@H]1O[C@@H](n2c(NCCCS(C)(=O)=O)nc3c(N4CCc5ccc([N+](=O)[O-])cc5C4)ncnc32)[C@H](O)[C@@H]1O` [Compound 143]: the concentration for half-maximal inhibition (IC50) was less than 1 nM.
Turning to `C[C@H]1O[C@@H](n2cnc3c(OCCc4ccc(C#N)c(F)c4)ncnc32)[C@H](O)[C@@H]1O` [Compound 232], the IC50 was greater than 500 nM.
Turning to `COc1ncc(CNc2nc3c(OCc4ccc(C#N)cc4)ncnc3n2[C@@H]2O[C@H](C)[C@@H](O)[C@H]2O)cn1` [Compound 72], the IC50 is 1 to 20 nM.
Take `C[C@H]1O[C@@H](n2c(NCC3CCOCC3)nc3c(OCc4ccc(Cl)cc4)ncnc32)[C@H](O)[C@@H]1O` [Compound 111]: the IC50 lay in the range of 20 to 500 nM.
Turning to `C[C@H]1O[C@@H](n2cnc3c(OCCc4ccc(Cl)cc4)ncnc32)[C@H](O)[C@@H]1O` [Compound 293], the IC50 was greater than 500 nM.
On to `NC[C@H]1O[C@@H](n2cnc3c(SCc4ccc([N+](=O)[O-])cc4)ncnc32)[C@H](O)[C@@H]1O` [Compound 287], for which the half-maximal inhibitory concentration (IC50) was greater than 500 nM.
As for `CC(C)Oc1cccc(CSc2ncnc3c2ncn3[C@@H]2O[C@H](C)[C@@H](O)[C@H]2O)c1` [Compound 365], the IC50 is greater than 500 nM.
Turning to `C[C@H]1O[C@@H](n2cnc3c(SCc4ncc(F)cc4F)ncnc32)[C@H](O)[C@@H]1O` [Compound 337], the IC50 was greater than 500 nM.
On to `O=[N+]([O-])c1ccc(COc2ncnc3c2ncn3[C@@H]2O[C@H](CCCO)[C@@H](O)[C@H]2O)cc1` [Compound 218], for which the half-maximal inhibitory concentration (IC50) fell in the range of 20 to 500 nM.
For the compound `C[C@H]1O[C@@H](n2c(N[C@H]3CC[C@@H](O)CC3)nc3c(OCc4ccc([N+](=O)[O-])cc4)ncnc32)[C@H](O)[C@@H]1O` [Compound 56], the IC50 is less than 1 nM.
For `C[C@H]1O[C@@H](n2cnc3c(NCc4ccc5c(c4)CCC5)ncnc32)[C@H](O)[C@@H]1O` [Compound 322] the value was greater than 500 nM; for `C[C@H]1O[C@@H](n2cnc3c(COCc4ccc(Cl)cc4)ncnc32)[C@H](O)[C@@H]1O` [Compound 290], greater than 500 nM; for `C[C@H]1O[C@@H](n2c(NCCN3CCCC3)nc3c(OCc4ccc([N+](=O)[O-])cc4)ncnc32)[C@H](O)[C@@H]1O` [Compound 32], 20 to 500 nM.
As for `C[C@H]1O[C@@H](n2cnc3c(OCc4ccccc4C(F)(F)F)ncnc32)[C@H](O)[C@@H]1O` [Compound 323], the IC50 is greater than 500 nM.
Consider `C[C@H]1O[C@@H](n2cnc3c(NCc4ccc(S(C)(=O)=O)cc4)ncnc32)[C@H](O)[C@@H]1O` [Compound 277], for which the IC50 was greater than 500 nM.
As for `C[C@H]1O[C@@H](n2c(N[C@H]3C[C@@](C)(O)C3)nc3c(OCc4ccc(OC(F)F)cc4)ncnc32)[C@H](O)[C@@H]1O` [Compound 123], the IC50 was in the range of 1 to 20 nM.
Take `CNc1ccccc1COc1ncnc2c1ncn2[C@@H]1O[C@H](C)[C@@H](O)[C@H]1O` [Compound 372]: the IC50 is greater than 500 nM.
Take `C[C@H]1O[C@@H](n2cnc3c(OCCc4cccc([N+](=O)[O-])c4)ncnc32)[C@H](O)[C@@H]1O` [Compound 275]: the IC50 was greater than 500 nM.
Take `C[C@H]1O[C@@H](n2cnc3c(-c4cn(-c5ccc([N+](=O)[O-])cc5)nn4)ncnc32)[C@H](O)[C@@H]1O` [Compound 368]: the IC50 was greater than 500 nM.
For the compound `C[C@H]1O[C@@H](n2cnc3c(OCCc4ccc(OC(F)(F)F)cc4)ncnc32)[C@H](O)[C@@H]1O` [Compound 241], the IC50 was greater than 500 nM.
As for `C[C@H]1O[C@@H](n2cnc3c(NCc4cccc(OC(F)(F)F)c4)ncnc32)[C@H](O)[C@@H]1O` [Compound 335], the IC50 was greater than 500 nM.
Take `C[C@H]1O[C@@H](n2cnc3c(C(=O)NCc4ccccc4)ncnc32)[C@H](O)[C@@H]1O` [Compound 417]: the concentration for half-maximal inhibition (IC50) is greater than 500 nM.
Then `C[C@H]1O[C@@H](n2cnc3c(COCc4ccccc4)ncnc32)[C@H](O)[C@@H]1O` [Compound 399], with greater than 500 nM.
For `C[C@H]1O[C@@H](n2cnc3c(NCc4ccc(OCCN(C)C)cc4)ncnc32)[C@H](O)[C@@H]1O` [Compound 388], the IC50 is greater than 500 nM.
`C[C@H]1O[C@@H](n2cnc3c(OCc4cccc(C#N)c4)ncnc32)[C@H](O)[C@@H]1O` [Compound 221]: the IC50 was greater than 500 nM.
Regarding `C[C@H]1O[C@@H](n2c(NC3CCS(=O)(=O)CC3)nc3c(N4CCc5ccccc5C4)ncnc32)[C@H](O)[C@@H]1O` [Compound 181], the IC50 was in the range of 20 to 500 nM.
Then `CC(Oc1ncnc2c1ncn2[C@@H]1O[C@H](C)[C@@H](O)[C@H]1O)c1ccc(OC(F)F)cc1` (stereo partly shown) [Compound 263], with greater than 500 nM; and `C[C@H]1O[C@@H](n2c(N[C@H]3CC[C@@](C)(O)CC3)nc3c(OCc4ccc(F)cc4)ncnc32)[C@H](O)[C@@H]1O` [Compound 130], with 1 to 20 nM; and `C[C@H]1O[C@@H](n2c(NCC3CCC(F)(F)CC3)nc3c(OCc4ccc(C#N)cc4)ncnc32)[C@H](O)[C@@H]1O` [Compound 106], with 1 to 20 nM.
For `C[C@H]1O[C@@H](n2c(NC3CC3)nc3c(N4CCc5ccc(C#N)cc5C4)ncnc32)[C@H](O)[C@@H]1O` [Compound 164] the value was 20 to 500 nM; for `C[C@H]1O[C@@H](n2cnc3c(SCc4cc(-c5ccco5)on4)ncnc32)[C@H](O)[C@@H]1O` [Compound 359], greater than 500 nM.
`C[C@H]1O[C@@H](n2cnc3c(OCc4ccc5c(c4)OCC5)ncnc32)[C@H](O)[C@@H]1O` [Compound 313]: the IC50 was greater than 500 nM.
Regarding `C[C@H]1O[C@@H](n2c(NCCO)nc3c(N4CCc5ccc(C#N)cc5C4)ncnc32)[C@H](O)[C@@H]1O` [Compound 167], the concentration for half-maximal inhibition (IC50) lay in the range of 20 to 500 nM.
